# Tests used:
# IL-10 protein = IL-10 protein secretion by MRL/lpr splenocytes; type: cell-based, mouse; settings: MRL/lpr splenocytes stimulated by LPS, Con A, or LPS+IFN-γ, 72 hr
# From the text: To determine the effect of TSA and SAHA on IL-10 protein secretion, MRL/lpr splenocytes were stimulated with Con A, LPS, or LPS+IFN-γ for 72 hr in the absence or presence of TSA or SAHA. As shown in the FIG. 11D, splenocytes stimulated with Con A, LPS, or LPS+IFN-γ secreted a mean (±SEM) of 31.8±4.5, 32.3±1.9, and 34.8±4.9 pg/ml, respectively, of IL-10 protein.
# IL-12 p40 protein = IL-12 p40 protein secretion by MRL/lpr splenocytes; type: cell-based, mouse; settings: splenocytes stimulated with LPS and IFN-γ 24 hr; stimulated control 45.3±9.1; p=0.003
# Protocol: When splenocytes were activated with LPS (100 μg/ml) and IFN-γ 100U/ml) for 24 hr the mean (±SEM) IL-12 p40 secretion was 45.3±9.1 pg/ml.
# TGF-β1 gene chromatin = test: DNase I sensitivity assay of TGF-β1 gene in SLE PBMCs; type: cell-based, human
# Protocol: Because nuclease susceptibility is one of the characteristics of active chromatin, a DNase I sensitivity assay was used to examine chromatin conformation of the TGF-β1 gene in SLE PBMCs in the absence or presence of TSA. SLE PBMCs were treated with 1000 ng/ml of TSA for 18 hr, a treatment course shown previously to result in an optimal increase of TGF-β1 mRNA. Equal amounts of purified nuclei isolated from vehicle- or TSA-treated cells were exposed to increasing concentrations of DNase I (FIGS. 7A & 7B). Changes in DNase sensitivity were measured by a DNase I-PCR assay using 0.5 μg of DNA. As shown in the FIG. 7A, the cells treated with only vehicle were relatively resistant to DNase I digestion, even with use of higher concentrations of DNase I (0.25 μg/μl). In contrast, cells treated with TSA were digested in the lower concentration (0.025 μg/μl) of DNase I (FIG. 7B; lanes 3–6). […] There was no change in DNase I sensitivity at the G6PD gene promoter in vehicle- or TSA-treated SLE PBMCs (FIGS. 7A & 7B). Thus, it is likely that Trichostatin A increases DNase I sensitivity in the TGF-β1 gene of SLE PBMCs.
# IL-10 mRNA = test: RT-PCR of IL-10 transcript in SLE T cells; type: cell-based, human
# Protocol: T cells were cultured in the absence or presence of increasing concentrations of TSA for 18 hr in 5% CO2 at 37° C. RNA was isolated, cDNAs were prepared, and RT-PCR was performed as previously detailed (D. Laxminarayana, et al., J. Clin. Invest. 92, 2207 (1993)). The primers used were: […]
# The reaction mixtures were subjected to 30 cycles of denaturation (94° C., 1 min) and annealing for 1 min at 53° C. (CD154), […] (GAPDH) and 55° C. (IL-10 and IFN-γ). Extension was for 2 min at 72° C. with a final extension of 7 min at 72° C. using a DNA thermal cycler (Perkin-Elmer).
# To determine whether TSA could down-regulate IL-10, a dose-response analysis was performed. […] However, when SLE T cells were cultured in the presence of TSA for 18 hr, no detectable IL-10 transcripts were identified (FIG. 2C, lanes 3, 6, 9). When IL-10 transcripts from all eight SLE subjects were quantified relative to GAPDH transcripts, TSA inhibited expression of IL-10 mRNA by 71% (FIG. 2D; P=0.029). […] IL-10 and IFN-γ protein production were quantified by ELISA (R & D Systems, Minneapolis, Minn.). […] Thus, like CD154, TSA was able to block expression of IL-10 transcript, abolishing IL-10 production by SLE T cells.
# IL-6 protein = IL-6 protein secretion by MRL/lpr splenocytes; type: cell-based, mouse; settings: splenocytes with LPS and IFN-γ 72 hr; stimulated control 34.4±7.6 pg/ml; p=0.002
# Protocol: In determining whether TSA or SAHA down-regulate IL-6 mRNA content, splenocytes from 24-wk MRL/lpr mice were treated with increasing concentrations of TSA for 18 hr. […] TSA decreased IL-6 transcript at a concentration of 100 ng/ml and exerted maximal inhibition at 300 ng/ml. To address whether TSA and SAHA down-regulate LPS- and IFN-γ induced IL-6 transcript levels, splenocytes from younger MRL/lpr mice were treated in the absence or presence of TSA or SAHA for 18 hr before LPS and IFN-γ stimulation for 6 or 18 hr. […] Next, the effect of TSA and SAHA on IL-6 protein secretion in stimulated splenocytes was measured (FIG. 10D). When splenocytes were cultured with LPS and IFN-γ for 72 hr, there was a mean (±SEM) 34.4±7.6 pg/ml of IL-6 protein secretion.
# TGF-β1 protein = TGF-β1 protein secretion by PBMCs; type: cell-based, human
# Protocol: Gene expression of TGF-β1 was tested to determine if the gene expression is suppressed by deacetylation of histones in SLE. In this determination, SLE PBMCs or isolated T cells were treated with the histone deacetylase inhibitors (HDIs), TSA or SAHA, for 18hr. […] Subsequently, semi-quantitative PCR was performed to determine the amounts of […] transcripts in SLE and control T cells treated with vehicle or TSA (1000 ng/ml). […] There is no change in GAPDH transcript in normal and SLE T cells after treatment of HDIs. Increased TGF-β1 transcript was associated with a subsequent increase in TGF-β1 protein secretion by SLE PBMCs. When compared to vehicle treated PBMCs, total TGF-β1 protein in culture supernatants from SLE PBMCs increased by approximately 30%. In contrast, there was no increase in total TGF-β1 secretion in TSA treated cells in normal healthy controls. Similar results may be obtained by SAHA.
# SP1 binding = SP1 binding at TGF-β1 promoter; type: cell-based, human; settings: after treatment with TSA
# From the text: Exposure of SLE PBMCs to TSA and SAHA yielded an eight-fold increase in TGF-β1 transcript and a 30% rise in the synthesis of TGF-β1 protein. This enhanced transcriptional activation was temporally associated with increased acetylation of both H3 and H4 nucleosomal histones. […] The increase in total acetylated histones was not global; neither GAPDH nor G6PD genes were transcriptionally activated. […] Thus, the capacity of HDIs to increase the endogenous synthesis of TGF-β1 raises the possibility that these inhibitors could be therapeutic candidates for the treatment of SLE, atherosclerosis, and osteoporosis in addition to cancers.
smiles,measurement,setting,value
"CC(/C=C/C(=O)NO)=C\[C@@H](C)C(=O)c1ccc(N(C)C)cc1 [TSA, Trichostatin A]",IL-10 protein secretion,IL-10 protein,no detectable IL-10 secretion
same,IL-12 p40 secretion (mean±SEM),IL-12 p40 protein,1.5 ± 1.4 pg/mL
same,"increase in DNase I sensitivity, TGF-β1 promoter","TGF-β1 gene chromatin; SLE PBMCs, 1000 ng/ml TSA, 18 hr",three-fold
same,DNase I sensitivity at the G6PD gene promoter,TGF-β1 gene chromatin; vehicle- or TSA-treated SLE PBMCs,no change
same,TSA concentration at which no detectable IL-10 mRNA was identified,"IL-10 mRNA; SLE T cells, dose-response, RT-PCR",700 to 800 ng/mL
same,inhibition of expression of IL-10 mRNA,"IL-10 mRNA; eight SLE subjects, TSA 1000 ng/ml 18 hr, relative to GAPDH, P=0.029",71%
same,IL-6 protein secretion,IL-6 protein,no detectable IL-6 protein secretion
same,rise in the synthesis of TGF-β1 protein,TGF-β1 protein; SLE PBMCs exposed to TSA and SAHA (summary statement),30%
same,increase of total TGF-β1 protein in culture supernatants,"TGF-β1 protein; SLE PBMCs, compared to vehicle treated PBMCs",approximately 30%
same,total TGF-β1 secretion,TGF-β1 protein; TSA treated cells of normal healthy controls,no increase
same,SP1 binding after localized acetylation of the TGF-β1 promoter,SP1 binding,not associated with a concomitant increase

# From US7271198B2, “Method of treating autoimmune diseases” (Wake Forest University, priority 2000, dated 2007)
